Measured values: a melting point compilation (Tetko et al.; mined from patent text by program, amines drawn as free bases though some values may be those of a salt)

| melting point [°C] | SMILES |
| --- | --- |
| 241 to 243 | O=C1CC2(c3ccccc3)CCCC=C2C(=O)N1 (configuration not stated) |
| 180 | COc1ccc(CN(C)CCCc2ccc(NC(=O)c3cccc4c(=O)c5cccc(OC)c5[nH]c34)cc2)cc1OC |
| 208 to 210 | CC1c2ccccc2CN1NC(=O)c1ccc(Cl)c(S(N)(=O)=O)c1 (configuration not stated) |
| 134 | NC(=O)C(c1ccccc1)c1ccccn1 (racemic) |
| 194 to 196 | N#CCC(=O)Nc1ccc(C(F)(F)F)cc1 |
| 92 to 95 | COC(=O)c1ccc(/C=C(\C)c2ccc3c(c2)C(C)(C)CCO3)cc1 |
| 178 to 180 | O=C(CN1CCC(Cc2ccc(F)cc2)CC1)Nc1ccc2c(c1)CC(=O)N2 |
| 162 to 163 | NC(=O)NCC1CCCc2cc(NS(=O)(=O)c3cccc(F)c3)ccc21 (configuration not stated) |
| 174 to 176 | CCCc1nc(C(O)C(C)(C)C)c(C(N)=O)n1Cc1ccc(-c2ccccc2-c2nnn[nH]2)cc1 (configuration not stated) |
| 90 to 94 | CCCCOc1ccc(CC(=O)N[C@@H](C(=O)O)[C@@H](C)O)cc1 |
| 79 to 81 | CCOC(=O)C1=C(C)N=C(SCc2ccc(OC)cc2)N(C(=O)OCC)C1c1cccc(OC)c1 (configuration not stated) |
| 168 | CCCCc1nc(Cl)c(C(=O)O)n1Cc1ccc(-c2ccccc2-c2c(O)c(=O)c2=O)cc1 |
| 207 to 208 | O=C(O)Cc1ccc(NC(=O)c2ccccc2)cc1 |
| 105 to 107 | Cn1c(=O)n(CCCCI)c(=O)c2ccccc21 |
| 241 | O=C(Nc1nc(C(F)(F)F)co1)C1c2ccccc2Oc2ccc(F)cc21 (racemic) |
| 86 | Cc1cc(CC(=O)O)sc1C(=O)c1ccccc1 |
| 90.5 to 91.5 | Cc1cc(C(=O)NCCc2ccccc2)n(C)n1 |
| 60 to 62 | COC(=O)CCCSC(=S)NCc1ccc(Cl)cc1 |
| 140 to 147 | CNCc1ccc(-c2cc3ncnc(Nc4ccc5[nH]ccc5c4)c3s2)cc1 |
| 119 to 121 | CC(=O)OC(=O)c1cc(CCl)ccc1O |

| melting point [°C] | SMILES |
| --- | --- |
| 176 to 178 | Clc1ccccc1-c1cc(-c2ccccc2)c(-c2ccccc2Cl)nn1 |
| 161 to 163 | Nc1nc(Cl)cc(Oc2ccc3c(c2)OCCN3C(=O)OCc2ccccc2)n1 |
| 210 | O=C(Nc1ccccc1)NC1CCN2CCc3ccccc3C2C1 (configuration not stated) |
| 62 | CCC1(COC(=O)c2cccc3ccccc23)COC1 |
| 126 to 127 | Cc1cccc(NC(=O)CN2CCN(c3ccccn3)CC2)c1 |
| 221 | N#Cc1cc2c(c(C(=O)O)c1)OC(c1ccccc1)(c1ccccc1)O2 |
| 108 to 110 | Cc1noc(NS(=O)(=O)c2cc(-c3ccccc3)cs2)c1Br |
| 144 to 146 | COc1ccc(C#CCCCCOc2ccc(C(=O)c3cccc(C(=O)O)c3)cc2CCC(=O)O)cc1 |
| 295 to 300 | CC(C)c1ccc(NC(=O)Nc2cccc(C(=O)O)c2)cc1 |
| 145 to 146 | Cc1oc(-c2ccccc2)nc1CCC(O)c1ccc(CCC2OC(=O)NC2=O)cc1 (configuration not stated) |
| 169 to 171 | CC(C)(C(=O)O)c1oc2cccc-2cc1-c1ccccc1 |
| 136 to 137 | COc1ccc(CC2C(=O)N(Cc3ccccc3)c3ccccc3N=C2C)cc1 (configuration not stated) |
| 315 to 317 | Cc1c(-c2ccc(-c3ccccc3F)cc2)nc2ccc(F)cc2c1C(=O)O |
| 105 to 106 | Cc1ccc(C(=O)N2CCN(CCc3ccc(Cl)cc3)CC2)cc1 |
| 214 to 215 | O=C(Nc1c[nH]nc1C(=O)NCCc1ccccc1)c1ccccn1 |
| 96.5 to 98 | COC(=O)c1ccccc1-c1cc(-c2ccc(OC)cc2)on1 |
| 37 to 40 | CCNC(=O)c1ccccc1NC(C)(C)C |
| 171 to 172 | CCOC(=O)c1ccc(NC(=O)C(c2ccc(Cl)cc2)c2ccc(Cl)cc2)cc1 |
| > 250 | CN1C(=O)C2(COc3cc4c(cc32)OCCO4)c2c(C(=O)Nc3ccc(F)cc3)cccc21 (configuration not stated) |
| 91 to 93 | O=C(O)[C@@H]1CCC(=O)N1Cc1ccccc1 |

The remaining lines, values behind:

| SMILES | melting point [°C] |
| --- | --- |
| COc1cc(CC(=O)NCCCc2ccc(C)c(C)c2)ccc1OCCNCCO | 76 to 79 |
| CNC(=NCCSCc1nc[nH]c1C)S(=O)(=O)O | 162 to 164 |
| c1ccc2c(CN3CCN(c4ccc5c(c4)OCO5)CC3)n[nH]c2c1 | 149 to 150 |
| Cc1c(NC(=O)c2ccc(OC[C@@H]3CCCO3)cc2F)ccc2cc(CNCC(C)(C)O)[nH]c12 | 148 to 149 |
| O=C1CSCC(=O)NCCOCCN1 | 186 to 188 |
| CC1CC(=O)NN=C1c1ccc2[nH]c(-c3ccncc3)cc2c1 (configuration not stated) | 301 to 303 |
| CC(=O)Oc1ccc2c(c1)COC(C(Cl)(Cl)Cl)N2 (configuration not stated) | 155 to 157 |
| CC(C)(C)c1cc(C(C)(C)C)[nH]n1 | 191 to 193 |
| O=[N+]([O-])c1cc(C(F)(F)F)ccc1Sc1ccc(O)cc1 | 131 to 134 |
| CCOC(=O)C1(C)CCc2ccccc2O1 (configuration not stated) | 79 to 80 |
| CC(=O)C1CCC2C3CCC4CC(OC(=O)OCC(Cl)(Cl)Cl)CCC4(C)C3C(NC(=O)OCC(Cl)(Cl)Cl)CC12C (configuration not stated) | 174 to 176 |
| CCOCc1cccc2cc(C(N)=O)oc12 | 133 to 134 |
| CS(=O)(=O)Nc1cccc2c(O)ccc(N=Nc3cccc(S(=O)(=O)NCCCCCCBr)c3)c12 | 163 to 165 |
| COc1ccc(-c2cc(CN3CCNCC3)c(=O)n(CC3CC3)n2)cc1F | 112 to 118 |
| O=C1C(O)=C(C2CCCCC2)C(=O)c2ccccc21 | 128 to 130 |
| Cc1cccc(CN2CCC(c3cc(-c4ccc(Cl)cc4)[nH]n3)CC2)c1 | 119 to 120 |
| CC(I)CC(F)(F)C(F)(F)C(F)(F)C(F)(F)CC(C)I (configuration not stated) | 35 to 35.5 |
| c1ccc2c3c([nH]c2c1)C(c1ccc2c(c1)OCCO2)NCC3 (configuration not stated) | 144 |
| O=C(O)C(CN1CCCC1)C(C(=O)O)P(=O)(O)O (configuration not stated) | 122 to 124 |
| O=Cc1c2ccc(F)cc2c(C=O)c2ccc(F)cc12 | 240 to 242 |
| Clc1ccc2nc(-c3ccccc3)n(CCCN3CCN(C(c4ccccc4)c4ccccc4)CC3)c2c1 | 198 |

| SMILES | melting point [°C] |
| --- | --- |
| CC(Oc1ccc([N+](=O)[O-])cc1)c1c(F)ccc(F)c1F (configuration not stated) | 120 |
| Cc1ccc(S(=O)(=O)OC2=C(Br)C(=O)c3c(ccc4c3CCC(C)(C)O4)C2=O)cc1 | 109 to 115 |
| CN(C)CCOC1(O)C=CC2=NC(C(=O)N3CC(CCl)c4c3ccc3ncccc43)=CC2=C1 (configuration not stated) | 209 to 215 |
| N#Cc1cccc(C2=Nc3ccc(-c4cccc(F)c4)cc3NC(=O)C2)c1 | 232 to 235 |
| CC1CCCN1C1CCN(c2ccc(CC(=O)NC3CCOCC3)cc2)C1 (configuration not stated) | 155 to 157 |
| CCCNC(=O)c1nc(C)ccc1C(=O)Nc1c(Cl)ccc(C)c1C#N | 129 to 131 |
| CCN(CC)CCCCCCCCNc1nc(N)nc(-c2cc(Cl)ccc2Cl)n1 | 101 to 102 |
| c1ccc2c(c1)c1ccccc1n2-c1ccc2c(c1)Oc1ccc(-n3c4ccccc4c4ccccc43)cc1O2 | 348 |
| CS(=O)(=O)C(CC(S(C)(=O)=O)S(C)(=O)=O)S(C)(=O)=O | 278 to 280 |
| O=C1NC(O)C2=C1c1ccc(Cl)cc1C(c1ccccc1Cl)=NC2 (configuration not stated) | 221 to 222 |
| O=S1N=C(NCCCN(Cc2ccsc2)c2ccccn2)C(NCc2ccncc2)=N1 (configuration not stated) | 155 to 157 |
| Oc1cc2cc(-c3c(F)cccc3F)sc2c(Cl)c1Cl | 161 to 162 |
| O=c1[nH]cnc2c(Br)sc(Br)c12 | > 250 |
| CCCCCC1CCC(c2ccc(-c3cc(F)c(C(F)(F)Oc4cc(F)c(C(F)(F)F)c(F)c4)c(F)c3)c(F)c2)CC1 (configuration not stated) | 74 |
| COC(=O)c1nc2nc(COC(C)=O)cc(Cl)n2n1 | 120 |
| CC(C)(C)C(=O)OCn1cnc2ccc(CBr)cc2c1=O | 104 to 114 |
| CCCc1c(O)c(C(=O)O)cc(Cl)c1OCCCCCCc1cccc(O)c1O | 110 to 113 |
| Cc1nnc2ncc(-c3ccccc3Cl)nn12 | 172 to 175 |
| NC(=NCC(F)(F)F)Nc1nc(CO)ns1 | 123 to 125 |
| CC(=O)Oc1ccc(C(C)C)c(NC(=O)CN2CCN(CCSc3nc4ccccc4o3)CC2)c1C(C)C | 129 to 131 |
| CS(=O)(=O)c1ccc(C(CC2CCCC2)c2nc(F)c(C(=O)C3CC3)[nH]2)cc1 (configuration not stated) | 160 to 162 |

| SMILES | melting point [°C] |
| --- | --- |
| NC(=S)c1ncn(C2OC(COS(N)(=O)=O)C(O)C2O)n1 (configuration not stated) | 173 to 175 |
| COC(=O)c1cc(N2C(=O)CCC2=O)c(Cl)c(S(N)(=O)=O)c1 | 195 to 196 |
| CCCCN(CCCC)c1ccc2nc3c4ccccc4c(=Nc4ccncc4)cc-3oc2c1 | 188 to 189 |
| N#Cc1cc(-c2ccncc2)c[nH]c1=O | > 300 |
| COc1cc2c(cc1O)CCC1C2CCC2(C)C(=O)CCC12 (configuration not stated) | 167 to 170 |
| O=C(O)c1cn(CCc2cccc(Cl)c2)c2cc(C3CC3)nn2c1=O | 230 to 235 |
| COc1cc(C=O)ccn1 | 33 to 35 |
| Cc1cc(I)c(C(N)=O)cc1C | 195 to 197 |
| O=C1C2CC(c3ccc([N+](=O)[O-])cc3)(C2)C(=O)N1CC1CCCCC1 | 191 to 194 |
| O=C(O)c1ccc2[nH]c3c(c2c1)CCCCCC3 | 240 to 241 |
| CCCn1nc(C(=O)OCC)cc1CC(C)(C)NC(=O)OC(C)(C)C | 109 to 111 |
| C[C@]1(COc2ccc(N3CCC(Nc4ccc(Cl)c(Cl)c4)CC3)cc2)Cn2cc([N+](=O)[O-])nc2O1 | 146 to 147 |
| CC(=O)C(C)OC(=O)CC[C@H]1NC(=O)[C@@H]1N1C(=O)c2ccccc2C1=O (some centres not stated) | 135 to 145 |
| CCCCCC(C#CC1C(O)CC(=O)C1CCCCCCC(=O)OC)OC1CCCCO1 (mixture of isomers) | 84 to 85 |
| c1csc(-c2ccc3cc(-c4cccs4)ccc3c2)c1 | 256 to 258 |
| CC(C)(C(=O)O)C1(c2ccc(Cl)cc2)CCC1 | 95 to 110 |
| CC(O)c1cc(C(F)(F)F)cc(S(N)(=O)=O)c1 (configuration not stated) | 169 to 170 |
| N#Cc1c(N2CCN(C(=O)c3ccco3)CC2)c2cc(F)cnc2n(Cc2cccc(F)c2)c1=O | 211 |
| CC(C)Cc1ccc(CCc2cc3c(s2)NC(=S)CN=C3c2ccccc2Cl)cc1 | 180 to 182 |
| COc1cc(C)cc2ncc(Br)n12 | 105 to 106 |
